# Measurements published in ChEMBL document CHEMBL5226294, “Natural bioeffective cyclooligopeptides from plant seeds of Annona genus” (Eur J Med Chem, 2021).
# Where a SMILES comes first, the peptide text is derived from it. [ ]: non-standard residue; d: D form. Met(O) = CS(=O)CC[C@H](N)C(=O)O; Dab = NCC[C@H](N)C(=O)O
# Assays:
# [1] = Cytotoxicity against mouse DLA cell assessed as reduction in cell viability incubated for 3 hrs by tryphan blue dye based assay; assay type: toxicity; conditions: DLA cells
# [2] = system: KB; assay: Cytotoxicity against human KB cells assessed as reduction in cell viability; assay type: functional, cell-based
# [3] = system: KB; assay: Cytotoxicity against human KB cells assessed as reduction in cell viability incubated for 3 days; assay type: functional, cell-based; conditions: 72 h
# [4] = Cytotoxicity against mouse EAC cell assessed as reduction in cell viability incubated for 3 hrs by tryphan blue dye based assay; assay type: toxicity; conditions: EAC (Ehrlich) cells
# [5] = system: KB; assay: Cytotoxicity against human KB cells assessed as inhibition of cell growth at 6.25 to 100 uM incubated for 72 hrs by MTT assay; assay type: functional; parameters: scale not given: the % may be the effect or the level left; conditions: dose 6.25-100 µM
# [6] = system: HL-60; assay: Cytotoxicity against human HL-60 cells assessed as inhibition of cell growth at 6.25 to 100 uM incubated for 72 hrs by MTT assay; assay type: functional; parameters: scale not given: the % may be the effect or the level left; conditions: dose 6.25-100 µM
# [7] = system: Escherichia coli; assay: Antibacterial activity against Escherichia coli MUMC 106 assessed as inhibition of bacterial growth incubated for 18 hrs by disk diffusion method; assay type: functional
# [8] = system: Candida albicans; assay: Antifungal activity against Candida albicans MUMC 29 assessed as inhibition of fungal growth incubated for 48 hrs by disk diffusion method; assay type: functional
# [9] = system: Pseudomonas aeruginosa; assay: Antibacterial activity against Pseudomonas aeruginosa MUMC 266 assessed as inhibition of bacterial growth incubated for 18 hrs by disk diffusion method; assay type: functional
# [10] = system: Escherichia coli; assay: Antibacterial activity against Escherichia coli MUMC 106 assessed as increase in inhibition of bacterial growth incubated for 18 hrs by disk diffusion method relative to ciprofloxacin; assay type: functional; parameters: scale not given: the % may be the effect or the level left
# [11] = system: Candida albicans; assay: Antifungal activity against Candida albicans MUMC 29 assessed as increase in inhibition of fungal growth incubated for 48 hrs by disk diffusion method relative to griseofulvin; assay type: functional; parameters: scale not given: the % may be the effect or the level left
# [12] = system: Pseudomonas aeruginosa; assay: Antibacterial activity against Pseudomonas aeruginosa MUMC 266 assessed as increase in inhibition of bacterial growth incubated for 18 hrs by disk diffusion method relative to ciprofloxacin; assay type: functional; parameters: scale not given: the % may be the effect or the level left
# [13] = system: DU-145; assay: Cytotoxicity against human DU-145 cells assessed as inhibition of cell growth incubated for 72 hrs by XTT assay; assay type: functional, cell-based; conditions: DU-145, 72 h
# [14] = system: Microsporum audouinii; assay: Antimicrobial activity against Microsporum audouinii MUMC 545 assessed as inhibition of microbial growth by disk diffusion method; assay type: functional
# [15] = Cytotoxicity against mouse EAC cell assessed as reduction in cell viability; assay type: toxicity, cell-based; conditions: EAC (Ehrlich) cells
# [16] = Cytotoxicity against mouse DLA cell assessed as reduction in cell viability; assay type: toxicity, cell-based; conditions: DLA cells
# [17] = system: Trichophyton mentagrophytes; assay: Antimicrobial activity against Trichophyton mentagrophytes MUMC 665 assessed as inhibition of microbial growth by disk diffusion method; assay type: functional
# [18] = system: Klebsiella pneumoniae; assay: Antibacterial activity against Klebsiella pneumoniae assessed as inhibition of bacterial growth incubated for 18 hrs by disc diffusion method; assay type: functional
# [19] = system: Pseudomonas aeruginosa; assay: Antibacterial activity against Pseudomonas aeruginosa assessed as inhibition of bacterial growth incubated for 18 hrs by disc diffusion method; assay type: functional
# [20] = system: Microsporum audouinii; assay: Antifungal activity against Microsporum audouinii assessed as inhibition of fungal growth incubated for 48 hrs by serial plate dilution method; assay type: functional
# [21] = system: Trichophyton mentagrophytes; assay: Antifungal activity against Trichophyton mentagrophytes assessed as inhibition of fungal growth incubated for 48 hrs by serial plate dilution method; assay type: functional
compound,measurement,setting,value
CC[C@H](C)[C@@H]1NC(=O)[C@@H]2CCCN2C(=O)[C@H](C(C)C)NC(=O)[C@H](C)NC(=O)CNC(=O)[C@@H]2CCCN2C(=O)[C@H](C)NC(=O)[C@H](Cc2ccc(O)cc2)NC1=O (cyclo(APGAVPIY)),CC50 at 3 h,[1],6.72 µM
same,IC50,[2],0.52 µM
same,IC50,[3],0.52 µM
same,CC50 at 3 h,[4],11.9 µM
CC[C@H](C)[C@@H]1NC(=O)[C@@H]2CCCN2C(=O)CNC(=O)[C@H](C)NC(=O)[C@H](Cc2ccc(O)cc2)NC1=O (cyclo(AGPIY)),Activity,[5],<30%
same,Activity,[6],<30%
CC(C)C[C@@H]1NC(=O)CNC(=O)[C@H](Cc2ccccc2)NC(=O)[C@H](Cc2ccc(O)cc2)NC(=O)[C@@H]2CCCN2C(=O)CNC1=O [Cherimolacyclopeptide E] (cyclo(FGLGPY)),MIC,[7],12.5 µg/mL
same,MIC,[8],6 µg/mL
same,MIC,[9],6 µg/mL
same,CC50 at 3 h,[1],2.76 µM
same,Activity,[10],12%
same,Activity,[11],25%
same,Activity,[12],12%
same,IC50,[3],0.017 µM
same,CC50 at 3 h,[4],4.96 µM
COc1cccc2c1C(=O)c1c(O)c3c(c(O)c1C2=O)C[C@@](O)(C(=O)CO)C[C@@H]3O[C@H]1C[C@H](N)[C@H](O)[C@H](C)O1 [DOXORUBICIN],IC50,[13],1.1 µM
same,IC50,[2],0.02 µM
CC(C)C[C@@H]1NC(=O)[C@H](Cc2c[nH]c3ccccc23)NC(=O)[C@H](C)NC(=O)[C@H](CC(N)=O)NC(=O)[C@@H]2CCCN2C(=O)[C@H]([C@@H](C)O)NC(=O)CNC1=O (cyclo(AWLGTPN)),MIC,[14],6 µg/mL
same,CC50,[15],14.1 µM
same,CC50,[16],11.6 µM
same,MIC,[17],6 µg/mL
CC(C)C[C@@H]1NC(=O)CNC(=O)[C@@H]2CCCN2C(=O)[C@H]([C@@H](C)O)NC(=O)[C@H](C(C)C)NC(=O)[C@H](C)NC(=O)[C@H](CO)NC1=O,IC50,[13],54.9 µM
O=c1[nH]cc(F)c(=O)[nH]1 [FLUOROURACIL],CC50 at 3 h,[1],37.4 µM
same,CC50 at 3 h,[4],37.4 µM
CC[C@H](C)[C@@H]1NC(=O)[C@@H]2CCCN2C(=O)[C@H](CC(C)C)NC(=O)[C@H](CC[S+](C)[O-])NC(=O)CNC(=O)[C@H]([C@@H](C)O)NC(=O)[C@H](CCC(N)=O)NC(=O)[C@@H]2CCCN2C1=O (stereo partly drawn) (cyclo(G[Met(O)]LPIPQT)),IC50,[2],45 µM
CC[C@H](C)[C@@H]1NC(=O)[C@H](C)NC(=O)[C@H](C(C)C)NC(=O)[C@H]([C@@H](C)O)NC(=O)CNC(=O)[C@H](Cc2ccc(O)cc2)NC(=O)[C@H](CO)NC(=O)[C@H](CCN)NC(=O)[C@@H]2CCCN2C1=O (cyclo(AIP[Dab]SYGTV)),IC50,[13],27.3 µM
CC(C)C[C@@H]1NC(=O)CNC(=O)[C@@H]2CCCN2C(=O)[C@H]([C@@H](C)O)NC(=O)[C@H](C(C)C)NC(=O)[C@H](C)NC(=O)[C@H](CC(N)=O)NC1=O,IC50,[2],0.97 µM
CC(C)C[C@@H]1NC(=O)CNC(=O)[C@@H]2CCCN2C(=O)[C@H](CC(N)=O)NC(=O)[C@H](C)NC(=O)[C@H](Cc2ccc(O)cc2)NC(=O)[C@@H]2CCCN2C1=O [CYCLOMONTANIN D] (cyclo(ANPGLPY)),MIC,[18],6 µg/mL
same,MIC,[19],6 µg/mL
same,MIC,[20],6 µg/mL
same,MIC,[21],6 µg/mL
CC(C)C[C@@H]1NC(=O)[C@H](Cc2ccc(O)cc2)NC(=O)[C@@H]2CCCN2C(=O)[C@@H]2CCCN2C(=O)[C@H](C(C)C)NC(=O)CNC(=O)[C@@H]2CCCN2C1=O (cyclo(GVPPYLP)),Activity,[5],<30%
same,Activity,[6],<30%
CC[C@H](C)[C@@H]1NC(=O)CNC(=O)[C@H](CCSC)NC(=O)CNC(=O)[C@@H]2CCCN2C(=O)[C@H](CCSC)NC(=O)[C@@H]2CCCN2C(=O)[C@H](CC(C)C)NC(=O)[C@H](Cc2ccc(O)cc2)NC1=O (cyclo(GIYLPMPGM)),IC50,[3],0.06 µM
CC[C@H](C)[C@@H]1NC(=O)CNC(=O)[C@H](CCSC)NC(=O)CNC(=O)[C@@H]2CCCN2C(=O)[C@H](CC(C)C)NC(=O)[C@H](Cc2ccc(O)cc2)NC1=O (cyclo(GIYLPGM)),IC50,[2],16.5 µM
same,IC50,[3],16.5 µM
CC[C@H](C)[C@@H]1NC(=O)[C@@H]2CCCN2C(=O)[C@H](CC(C)C)NC(=O)[C@H](CCSC)NC(=O)CNC(=O)[C@H]([C@@H](C)O)NC(=O)[C@H](CCC(N)=O)NC(=O)[C@@H]2CCCN2C1=O (cyclo(GMLPIPQT)),IC50,[2],0.6 µM
CC(C)C[C@@H]1NC(=O)[C@H](C(C)C)NC(=O)[C@H](C(C)C)NC(=O)CNC(=O)[C@H](C)NC(=O)CNC(=O)[C@@H]2CCCN2C1=O (cyclo(AGVVLPG)),IC50,[2],0.73 µM
